Source: publication PMC10680097 (Biochemistry, 2023)

Experiments:
[1] = system: C4-reductase (HS:51/HS:53); experiment: NADPH oxidation at […] nm; assay type: biochemical, Campylobacter jejuni; conditions: apparent; 300 μM NADPH, 50 mM HEPES pH 7.5, 30 °C; substrate made with Cj1427
C3/C5-epimerase (HS:42) = target: T1, C3/C5-epimerase (HS:42) (Campylobacter jejuni, UniProt F2X7E5); experiment: coupled turnover of purified […] to […], D2O exchange at C3 and C5, ESI-MS; assay type: biochemical; conditions: 5.0 mM NADPH and HS:42 C4-reductase, pH 8.0, 40 h
T1 construct: gene HS42.11
T1 sequence (F2X7E5 entry or part of it): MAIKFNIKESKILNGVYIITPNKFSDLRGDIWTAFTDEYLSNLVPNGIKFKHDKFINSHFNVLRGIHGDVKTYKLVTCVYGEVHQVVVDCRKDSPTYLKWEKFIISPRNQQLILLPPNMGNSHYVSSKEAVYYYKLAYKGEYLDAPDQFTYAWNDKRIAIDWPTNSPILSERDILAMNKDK

## Nc1nc2c(ncn2[C@@H]2O[C@H](COP(=O)(O)OP(=O)(O)O[C@H]3O[C@H]([C@H](O)CO)C(=O)[C@H](O)[C@@H]3O)[C@@H](O)[C@H]2O)c(=O)[nH]1 [compound 22, GDP-D-glycero-4-keto-α-D-lyxo-heptose]
[1]
  Km: 53 ± 6 µM
C3/C5-epimerase (HS:42)
  coupled turnover of purified 22 to 30, D2O exchange at C3 and C5, ESI-MS: Epimerases from the same serotype of each C4-reductase were used for each reaction
